Source: patent publication EP0587106B1, “Compositions containing lipophilic salts having neutron activable cations” (VECTORPHARMA INTERNATIONAL S.p.A., priority 1992, dated 1994)
Converted amounts (≈) assume the structure as drawn.

Test: physchem

solubility at 24 h (pH 1.2): 90 µg/mL (≈ 394 µM) | solubility at 24 h (pH 3): 8 µg/mL (≈ 35 µM) | solubility at 24 h (pH 5.2): < 2 µg/mL | solubility at 24 h (pH 7): < 2 µg/mL
SMILES: CCCCCCCCCCCCCC(=O)O [Samarium miristate, samarium miristate]
